Measured values from US20210379214A1, “Phospholipid-Free Small Unilamellar Vesicles (PFSUVS) for Drug Delivery” (The University of British Columbia, priority 2018, published 2021).
≈ marks a conversion by molar mass, not a printed value.

What was measured:
EMT6 cells [1] = test: Cellular uptake of DOX by confocal laser scanning microscopy; assay type: cell-based, murine; conditions: for Mean Fluorescence Intensity: 5 μg DOX/ml
Experimental: (§1) EMT6 (murine breast tumor) and the resistant variant, EMT6/AR1 cells overexpressing P-glycoprotein were purchased from the National Cancer Institute (Bethesda, Md.). EMT6 cells were cultured in DMEM medium with 10% FBS, penicillin (100 U/ml) and streptomycin (100 μg/ml) at 37° C. with 5% CO2.
Cellular uptake of DOX was imaged by confocal laser scanning microscopy (CLSM). EMT6 cells were seeded on a cover slip placed in a 24-well plate (1×10^5 cell/well) for 24 h prior to the study. […] The medium was removed and the cells were washed with PBS twice before fixation with 10% of formaldehyde at room temperature for 20 min. The cover slip was then washed for another 2 times with PBS and mount on a glass slide with fluorescence shield containing DAPI. The cells were imaged under a Zeiss™ confocal microscope (LSM 700™) and the image was analyzed using the CellProfiler™ (Version 3.0) software.

EMT6 cells [2] = test: Cellular uptake in the presence of apolipoprotein; assay type: cell-based, murine; conditions: 4 hours, apolipoprotein 5, 20, 100 μg/ml
Experimental: EMT6 cells were seeded in 12 wells on cover slip over night to be confluent. […] After treatment, the cover slips were fixed with 10% and were then mounted on slide with a DAPI contained fluorescence shield. The slides were imaged under a confocal microscopy. Doxorubicin signal in those images were then quantified by Cellprofiler™.

[3] = test system: EMT6 murine breast cancer cells; test: In vitro cytotoxicity (MTT assay); assay type: cell-based
Experimental: as §1
EMT6 cells were seeded on a 96-well plate (1000 cells/well). Wells with medium only were used as blank. […] Two days later, 5 μl of MTT solution (5 mg/ml) was added to each well, followed by 4-h incubation. The medium was removed and 100 μl DMSO was added into each well, followed by incubation at room temperature for 15 min. Absorbance at 540 nm in each well was then measured by a plate reader. The cell viability was calculated as (Abs−Abblank)/(Ab100−Abblank)×100%, where Abs is the Absorbance540 nm for the experimental group, Abblank is the Absorbance540 nm of sample without cells and Ab100 is the Absorbance540 nm of sample without treatment.

COc1cccc2c1C(=O)c1c(O)c3c(c(O)c1C2=O)C[C@@](O)(C(=O)CO)C[C@@H]3O[C@H]1C[C@H](N)[C@H](O)[C@H](C)O1 [DOX, doxorubicin]
change of DOX cellular uptake in the presence of serum versus serum free (EMT6 cells [1]; EMT6 cells, 4 hr): did not significantly change | Mean Fluorescence Intensity (EMT6 cells [1]; EMT6 cells, 4 hr, 10% Serum): 0.247 ± 0.021 | Mean Fluorescence Intensity (EMT6 cells [1]; EMT6 cells, 4 hr, Without Serum): 0.258 ± 0.014 | increased cellular uptake relative to PFSUVs-DOX and PLD (EMT6 cells [1]; absence of serum): ~15 fold | effect of increasing concentrations of apolipoproteins on internalization (EMT6 cells [2]): no influence | in vitro potency, fold more effective than PFSUVs-dox [3]: 4 fold | IC50 ([3]; MTT, curve fitting): 25 ng/mL (≈ 0.046 µM)
